Reference: ChEMBL document CHEMBL3808337, “Rapid Discovery of Pyrido[3,4-d]pyrimidine Inhibitors of Monopolar Spindle Kinase 1 (MPS1) Using a Structure-Based Hybridization Approach” (J Med Chem, 2016)
pIC50: −log10 of the molar value.

Key:
[1] = Drug metabolism in CD1 mouse liver microsomes at 10 uM after 30 mins by LCMS analysis; type: ADME; details: read-out: Drug metabolism
[2] = Antiproliferative activity against human HCT116 cells assessed as cell viability after 72 hrs by MTT assay; type: functional; details: HCT-116, 72 h
[3] = molecular target: Mitogen-activated protein kinase 8 (Homo sapiens, UniProt P45983); assay: Inhibition of human full length recombinant His-tagged JNK1 expressed in baculovirus by lanthascreen assay
Mitogen-activated protein kinase 8, sequence (P45983 whole entry): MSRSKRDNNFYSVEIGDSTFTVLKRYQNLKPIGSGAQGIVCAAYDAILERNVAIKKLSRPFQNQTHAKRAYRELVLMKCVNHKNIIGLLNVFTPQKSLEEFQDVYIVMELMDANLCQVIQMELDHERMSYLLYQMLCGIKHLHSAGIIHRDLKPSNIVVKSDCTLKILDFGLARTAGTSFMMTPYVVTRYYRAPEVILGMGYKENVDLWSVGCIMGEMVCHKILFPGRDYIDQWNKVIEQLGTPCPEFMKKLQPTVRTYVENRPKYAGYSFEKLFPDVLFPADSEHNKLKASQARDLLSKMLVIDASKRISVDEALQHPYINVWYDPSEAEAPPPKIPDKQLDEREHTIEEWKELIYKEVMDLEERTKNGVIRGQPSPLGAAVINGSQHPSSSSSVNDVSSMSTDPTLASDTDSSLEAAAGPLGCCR

[4] = molecular target: Mitogen-activated protein kinase 9 (Homo sapiens, UniProt P45984); assay: Inhibition of human full length recombinant His-tagged JNK2 expressed in baculovirus by lanthascreen assay
Mitogen-activated protein kinase 9, sequence (P45984 whole entry): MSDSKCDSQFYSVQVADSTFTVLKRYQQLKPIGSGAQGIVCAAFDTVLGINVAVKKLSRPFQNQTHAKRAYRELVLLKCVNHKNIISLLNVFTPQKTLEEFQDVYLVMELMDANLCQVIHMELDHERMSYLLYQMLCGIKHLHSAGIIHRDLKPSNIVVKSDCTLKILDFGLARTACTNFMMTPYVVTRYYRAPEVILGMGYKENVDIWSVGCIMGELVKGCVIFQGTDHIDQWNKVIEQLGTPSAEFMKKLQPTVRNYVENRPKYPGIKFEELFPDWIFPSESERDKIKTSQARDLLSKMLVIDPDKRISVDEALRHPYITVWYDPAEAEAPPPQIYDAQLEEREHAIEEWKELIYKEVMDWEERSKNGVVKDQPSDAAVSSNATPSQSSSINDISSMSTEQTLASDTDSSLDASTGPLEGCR

[5] = Antiproliferative activity against human SW620 cells assessed as cell viability after 72 hrs by MTT assay; type: functional; details: SW-620, 72 h
[6] = Antiproliferative activity against human CAL27 cells assessed as cell viability after 72 hrs by MTT assay; type: functional; details: CAL-27, 72 h
[7] = Antiproliferative activity against human CAL51 cells assessed as cell viability after 72 hrs by MTT assay; type: functional; details: CAL-51, 72 h
[8] = Antiproliferative activity against human PNT2 cells assessed as cell viability after 72 hrs by MTT assay; type: functional; details: PNT2, 72 h
Cytochrome P450 2A6 = molecular target: T1, Cytochrome P450 2A6 (Homo sapiens, UniProt P11509); assay: Inhibition of CYP2A6 (unknown origin); type: ADME
T1 sequence (P11509 whole entry): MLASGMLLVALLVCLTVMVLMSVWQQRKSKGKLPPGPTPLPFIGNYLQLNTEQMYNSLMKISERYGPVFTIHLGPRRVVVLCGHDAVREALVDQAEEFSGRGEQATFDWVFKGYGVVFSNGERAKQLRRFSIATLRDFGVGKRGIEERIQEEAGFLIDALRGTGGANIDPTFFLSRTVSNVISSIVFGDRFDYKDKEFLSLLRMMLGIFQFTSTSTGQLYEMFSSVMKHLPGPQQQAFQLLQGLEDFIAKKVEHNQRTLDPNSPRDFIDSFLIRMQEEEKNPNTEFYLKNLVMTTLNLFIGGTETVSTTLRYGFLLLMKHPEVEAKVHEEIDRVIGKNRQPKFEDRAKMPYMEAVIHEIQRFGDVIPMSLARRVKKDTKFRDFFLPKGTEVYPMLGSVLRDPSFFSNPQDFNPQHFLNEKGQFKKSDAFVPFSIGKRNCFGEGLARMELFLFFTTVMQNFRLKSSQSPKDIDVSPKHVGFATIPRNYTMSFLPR

Cytochrome P450 2B6 = molecular target: T2, Cytochrome P450 2B6 (Homo sapiens, UniProt P20813); assay: Inhibition of CYP2B6 (unknown origin); type: ADME
T2 sequence (P20813 whole entry): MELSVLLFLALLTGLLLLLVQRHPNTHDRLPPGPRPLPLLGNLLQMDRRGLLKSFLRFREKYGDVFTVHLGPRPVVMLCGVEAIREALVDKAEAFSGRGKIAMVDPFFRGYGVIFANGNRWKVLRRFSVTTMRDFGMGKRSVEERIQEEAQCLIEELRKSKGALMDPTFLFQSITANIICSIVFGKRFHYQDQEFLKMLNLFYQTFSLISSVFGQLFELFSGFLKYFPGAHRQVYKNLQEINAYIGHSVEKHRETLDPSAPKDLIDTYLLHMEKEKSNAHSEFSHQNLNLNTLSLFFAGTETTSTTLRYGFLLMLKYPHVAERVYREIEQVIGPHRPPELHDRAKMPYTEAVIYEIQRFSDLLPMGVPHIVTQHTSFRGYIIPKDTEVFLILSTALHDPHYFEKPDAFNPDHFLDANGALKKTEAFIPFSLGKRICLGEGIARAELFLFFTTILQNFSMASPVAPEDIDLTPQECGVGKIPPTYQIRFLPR

Cytochrome P450 3A4 = Cytochrome P450 3A4 (Homo sapiens, UniProt P08684); assay: Inhibition of CYP3A4T (unknown origin); type: ADME
Cytochrome P450 3A4, sequence (P08684 whole entry): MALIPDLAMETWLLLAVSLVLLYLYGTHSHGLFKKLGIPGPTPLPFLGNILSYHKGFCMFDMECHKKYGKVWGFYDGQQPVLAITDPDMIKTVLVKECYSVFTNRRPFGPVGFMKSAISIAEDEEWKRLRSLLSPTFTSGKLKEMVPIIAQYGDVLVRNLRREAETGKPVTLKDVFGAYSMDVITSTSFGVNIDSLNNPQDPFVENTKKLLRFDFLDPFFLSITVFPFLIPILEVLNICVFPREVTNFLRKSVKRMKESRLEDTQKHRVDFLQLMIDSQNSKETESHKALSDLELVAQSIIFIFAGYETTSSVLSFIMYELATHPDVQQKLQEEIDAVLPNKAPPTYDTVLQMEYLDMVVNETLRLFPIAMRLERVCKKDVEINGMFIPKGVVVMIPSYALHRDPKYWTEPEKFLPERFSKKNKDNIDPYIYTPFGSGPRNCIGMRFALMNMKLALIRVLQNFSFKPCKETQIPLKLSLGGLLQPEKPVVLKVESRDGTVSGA

Cytochrome P450 2C9 = Cytochrome P450 2C9 (Homo sapiens, UniProt P11712); assay: Inhibition of CYP2C9 (unknown origin); type: ADME; details: human
Cytochrome P450 2C9, sequence (P11712 whole entry): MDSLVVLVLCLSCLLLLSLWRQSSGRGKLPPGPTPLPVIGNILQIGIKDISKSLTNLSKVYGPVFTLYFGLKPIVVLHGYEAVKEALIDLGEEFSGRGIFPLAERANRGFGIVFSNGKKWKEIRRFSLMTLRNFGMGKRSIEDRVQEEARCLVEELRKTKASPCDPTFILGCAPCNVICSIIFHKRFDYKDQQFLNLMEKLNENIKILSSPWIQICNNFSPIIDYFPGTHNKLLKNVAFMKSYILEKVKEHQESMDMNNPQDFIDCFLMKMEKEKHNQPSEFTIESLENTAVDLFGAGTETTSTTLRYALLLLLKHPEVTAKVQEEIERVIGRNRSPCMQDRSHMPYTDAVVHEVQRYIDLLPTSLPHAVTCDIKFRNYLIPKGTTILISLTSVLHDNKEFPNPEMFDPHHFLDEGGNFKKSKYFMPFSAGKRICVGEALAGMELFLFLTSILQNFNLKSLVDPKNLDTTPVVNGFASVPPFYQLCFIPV

Cytochrome P450 2C8 = molecular target: T3, Cytochrome P450 2C8 (Homo sapiens, UniProt P10632); assay: Inhibition of CYP2C8 (unknown origin); type: ADME
T3 sequence (P10632 whole entry): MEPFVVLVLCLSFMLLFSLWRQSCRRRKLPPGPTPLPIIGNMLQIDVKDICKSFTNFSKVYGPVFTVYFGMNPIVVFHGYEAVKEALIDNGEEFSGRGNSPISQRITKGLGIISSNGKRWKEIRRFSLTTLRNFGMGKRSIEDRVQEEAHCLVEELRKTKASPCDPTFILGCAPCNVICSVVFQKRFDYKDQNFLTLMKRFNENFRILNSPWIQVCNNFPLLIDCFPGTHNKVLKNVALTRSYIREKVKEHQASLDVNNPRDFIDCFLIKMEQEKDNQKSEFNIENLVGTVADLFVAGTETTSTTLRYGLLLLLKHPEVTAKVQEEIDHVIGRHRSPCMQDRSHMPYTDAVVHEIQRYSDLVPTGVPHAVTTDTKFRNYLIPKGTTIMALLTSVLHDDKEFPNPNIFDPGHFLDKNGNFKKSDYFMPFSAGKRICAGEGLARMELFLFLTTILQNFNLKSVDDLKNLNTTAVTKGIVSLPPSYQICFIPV

[9] = molecular target: Voltage-gated inwardly rectifying potassium channel KCNH2 (Homo sapiens, UniProt Q12809); assay: Inhibition of human ERG at 1 to 10 uM
Voltage-gated inwardly rectifying potassium channel KCNH2, sequence (Q12809 whole entry): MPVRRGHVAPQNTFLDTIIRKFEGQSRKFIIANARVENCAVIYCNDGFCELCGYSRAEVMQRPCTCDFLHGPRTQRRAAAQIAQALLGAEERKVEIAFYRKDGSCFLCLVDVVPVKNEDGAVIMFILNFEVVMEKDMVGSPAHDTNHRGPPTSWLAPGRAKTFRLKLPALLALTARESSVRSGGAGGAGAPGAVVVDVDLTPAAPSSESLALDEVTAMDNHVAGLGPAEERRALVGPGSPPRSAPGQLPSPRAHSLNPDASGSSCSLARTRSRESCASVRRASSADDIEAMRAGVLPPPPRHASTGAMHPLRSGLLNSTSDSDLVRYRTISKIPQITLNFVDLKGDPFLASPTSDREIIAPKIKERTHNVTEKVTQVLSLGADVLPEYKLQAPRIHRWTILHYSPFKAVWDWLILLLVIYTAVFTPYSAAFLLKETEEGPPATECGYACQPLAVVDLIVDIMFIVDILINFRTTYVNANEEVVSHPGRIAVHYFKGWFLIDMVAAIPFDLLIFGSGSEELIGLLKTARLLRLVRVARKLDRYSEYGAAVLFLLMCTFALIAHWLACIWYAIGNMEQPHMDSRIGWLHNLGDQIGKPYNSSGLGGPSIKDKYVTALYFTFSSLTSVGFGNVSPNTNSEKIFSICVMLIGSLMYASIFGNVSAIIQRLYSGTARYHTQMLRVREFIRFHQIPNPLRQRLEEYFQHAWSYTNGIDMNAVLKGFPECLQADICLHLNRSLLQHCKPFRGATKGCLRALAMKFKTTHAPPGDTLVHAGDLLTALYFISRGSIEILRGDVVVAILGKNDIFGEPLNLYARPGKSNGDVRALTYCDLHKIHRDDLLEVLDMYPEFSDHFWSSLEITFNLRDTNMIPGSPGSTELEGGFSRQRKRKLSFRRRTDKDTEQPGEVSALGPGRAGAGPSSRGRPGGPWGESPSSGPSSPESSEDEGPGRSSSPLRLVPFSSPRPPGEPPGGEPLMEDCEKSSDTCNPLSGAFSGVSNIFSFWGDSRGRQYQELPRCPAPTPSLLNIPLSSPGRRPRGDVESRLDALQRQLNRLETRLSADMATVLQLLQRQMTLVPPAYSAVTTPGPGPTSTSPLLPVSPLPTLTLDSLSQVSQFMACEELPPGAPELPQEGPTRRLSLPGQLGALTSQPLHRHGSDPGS

[10] = Drug metabolism in Sprague-Dawley rat liver microsomes at 10 uM after 30 mins by LCMS analysis; type: ADME; details: read-out: Drug metabolism
[11] = Drug metabolism in human liver microsomes at 10 uM after 30 mins by LCMS analysis; type: ADME; details: read-out: Drug metabolism
[12] = Half life in Balb/C mouse blood at 5 mg/kg, iv or po after 24 hrs by ESI-LCMS/MS analysis; type: ADME, organism-based
[13] = Clearance in Balb/C mouse blood at 5 mg/kg, iv or po after 24 hrs by ESI-LCMS/MS analysis; type: ADME, organism-based
[14] = Clearance in Sprague-Dawley rat blood at 5 mg/kg, iv or po after 24 hrs by ESI-LCMS/MS analysis; type: ADME, organism-based
[15] = Cmax in Balb/C mouse blood at 5 mg/kg, po after 24 hrs by ESI-LCMS/MS analysis; type: ADME, organism-based; design: dose 5 mg/kg, route oral
[16] = Cmax in Sprague-Dawley rat blood at 5 mg/kg, po after 24 hrs by ESI-LCMS/MS analysis; type: ADME, organism-based; design: dose 5 mg/kg, route oral
[17] = AUC in Balb/C mouse blood at 5 mg/kg, po after 24 hrs by ESI-LCMS/MS analysis; type: ADME, organism-based; design: time < 24 hr, dose 5 mg/kg, route oral
[18] = AUC in Sprague-Dawley rat blood at 5 mg/kg, po after 24 hrs by ESI-LCMS/MS analysis; type: ADME, organism-based; design: time < 24 hr, dose 5 mg/kg, route oral
[19] = Plasma protein binding in Sprague-Dawley rat at 5 mg/kg, iv or po after 24 hrs by ESI-LCMS/MS analysis; type: ADME, organism-based; details: read-out: PPB (converted)
[20] = Volume of distribution at steady state in Sprague-Dawley rat at 5 mg/kg, iv or po after 24 hrs by ESI-LCMS/MS analysis; type: ADME, organism-based; details: in vivo, read-out: Vdss
[21] = Oral bioavailability in Sprague-Dawley rat at 5 mg/kg after 24 hrs by ESI-LCMS/MS analysis; type: ADME, organism-based; details: in vivo

## COc1cc(-c2cnn(C)c2)ccc1Nc1ncc2ccnc(N[C@@H](C)C(C)(C)C)c2n1
[1]
  metabolised at 0.5 h, 10 µM: 27%
[2]
  GI50: 160 nM
[3]
  pIC50: 6.96
[4]
  pIC50: 6.66
[5]
  GI50: 65 nM
[6]
  GI50: 230 nM
[7]
  GI50: 68 nM
[8]
  GI50: 3950 nM
Cytochrome P450 2A6
  inhibition (INH): Not Active
Cytochrome P450 2B6
  inhibition (INH): Not Active
Cytochrome P450 3A4
  inhibition (INH): Not Active
Cytochrome P450 2C9
  inhibition (INH): Not Active
Cytochrome P450 2C8
  inhibition (INH): Not Active
[9]
  inhibition (INH): Not Active
[10]
  metabolised at 0.5 h, 10 µM: 24%
[11]
  metabolised at 0.5 h, 10 µM: 70%
[12]
  half-life: 8.2 h
[13]
  clearance: 28 mL/min/kg
[14]
  clearance: 24 mL/min/kg
[15]
  Cmax: 770 nM
[16]
  Cmax: 560 nM
[17]
  AUC at 24 h: 4.8 µM·h
[18]
  AUC at 24 h: 9.3 µM·h
[19]
  fraction unbound at 24 h: 0.0003
[20]
  Vd: 4.64 L/kg
[21]
  bioavailability: 100%
